Laboratory results taken from the CheMixHub viscosity set.

Test: xn = mol fraction of the nth substance listed
Details: 101 kPa

CCCCCCCCCCCCCC[P+](CCCCCC)(CCCCCC)CCCCCC.N#C[N-]C#N + O
Details | viscosity [mPa·s]
303.11 K, x2 = 0.198 | 284.5

CCCCCO + O
viscosity [mPa·s]
Details | 298.15 K | 308.15 K | 318.15 K
x2 = 0.0288 | 3.509 | 2.654 | –
x2 = 0.029 | – | – | 2.055
x2 = 0.0453 | 3.487 | 2.638 | –
x2 = 0.066 | 3.468 | 2.62 | –
x2 = 0.0685 | – | – | 2.026
x2 = 0.0859 | 3.451 | 2.606 | –
x2 = 0.0914 | – | – | 2.016
x2 = 0.1012 | – | – | 2.006
x2 = 0.113 | 3.437 | 2.591 | –
x2 = 0.1301 | 3.431 | 2.585 | 1.997
x2 = 0.1472 | 3.429 | 2.579 | –
x2 = 0.149 | – | – | 1.991
x2 = 0.1655 | – | 2.577 | –
x2 = 0.1689 | 3.424 | – | 1.985
x2 = 0.1776 | 3.426 | 2.576 | –
x2 = 0.2023 | – | – | 1.98
x2 = 0.216 | 3.428 | 2.572 | –
x2 = 0.2419 | 3.438 | 2.575 | 1.979
